The NIST ThermoML archive (doi:10.1021/je501162f)
± gives the expanded uncertainty stated by the source.

Experiments:
[1] = molar heat capacity at constant pressure; details: 101.33 kPa, Liquid, Small sample (50 mg) DSC
[2] = for viscosity / mass density: 101.33 kPa; for viscosity / mass density / surface tension liquid-gas: Liquid; for mass density: Vibrating tube method; for surface tension liquid-gas: Pendant drop shape; for Glass transition temperature: DTA

CCCCCCCC[n+]1ccn(C)c1.N[C@@H](CO)C(=O)[O-] [1-methyl-3-octyl-1H-imidazol-3-ium L-serinate]
Details | mass density, [2] [kg/m3] | molar heat capacity at constant pressure, [1] [J/K/mol] | surface tension liquid-gas, [2] [mN/m] | viscosity, [2] [mPa·s]
293.15 K | 1075.6 ± 2.2 | 599.21 ± 61 | 34.29 ± 0.68 | 2853 ± 470
303.15 K | 1069.3 ± 2.2 | 607.97 ± 61 | 32.8 ± 0.67 | 1178.7 ± 150
313.15 K | 1062.7 ± 2.2 | 614.69 ± 62 | 32.2 ± 0.7 | 536.2 ± 52
323.15 K | 1056.1 ± 2.2 | 624.21 ± 63 | 31.6 ± 0.7 | 271.2 ± 19
333.15 K | 1049.7 ± 2.2 | 634.19 ± 64 | 31 ± 0.7 | 149.6 ± 7.2
343.15 K | 1043.3 ± 2.2 | 644.72 ± 65 | 30.01 ± 0.65 | 88.9 ± 2.9
353.15 K | 1036.9 ± 2.2 | 655.67 ± 66 | 29.23 ± 0.64 | 56.2 ± 1.4
363.15 K | 1030.5 ± 2.2 | – | – | 37.5 ± 1
373.15 K | 1024.2 ± 2.2 | – | – | 26.2 ± 0.7

Details | Glass transition temperature [°C]
[2] | -54 ± 1

CCCCCCCCn1cc[n+](C)c1.NCC(=O)[O-] [1-methyl-3-octylimidazolium glycinate]
Details | mass density, [2] [kg/m3] | molar heat capacity at constant pressure, [1] [J/K/mol] | surface tension liquid-gas, [2] [mN/m] | viscosity, [2] [mPa·s]
293.15 K | 1041.7 ± 2.2 | 504.06 ± 51 | 35.37 ± 0.69 | 486.4 ± 45
303.15 K | 1035.3 ± 2.2 | 511.67 ± 52 | 33.98 ± 0.68 | 248.2 ± 17
313.15 K | 1029.1 ± 2.2 | 518.04 ± 52 | 32.81 ± 0.67 | 137.9 ± 6.3
323.15 K | 1023 ± 2.2 | 526.8 ± 53 | 31.35 ± 0.66 | 82.4 ± 2.5
333.15 K | 1016.8 ± 2.2 | 536.66 ± 54 | 30.07 ± 0.65 | 52.3 ± 1.3
343.15 K | 1010.6 ± 2.1 | 546.99 ± 55 | 28.75 ± 0.64 | 34.9 ± 0.9
353.15 K | 1004.4 ± 2.1 | 555.85 ± 56 | 27.42 ± 0.63 | 24.4 ± 0.6
363.15 K | 998.6 ± 2.1 | – | – | 17.7 ± 0.4
373.15 K | 992.8 ± 2.1 | – | – | 13.3 ± 0.3

Details | Glass transition temperature [°C]
[2] | -69 ± 1

CCCCCCCC[n+]1ccn(C)c1.NC(=O)C[C@H](N)C(=O)[O-] [1-methyl-3-octylimidazolium L-asparaginate]
Details | mass density, [2] [kg/m3] | molar heat capacity at constant pressure, [1] [J/K/mol] | surface tension liquid-gas, [2] [mN/m] | viscosity, [2] [mPa·s]
293.15 K | – | 654 ± 66 | 34.32 ± 0.68 | –
303.15 K | 1061.7 ± 2.2 | 662.93 ± 67 | 33.7 ± 0.68 | 3519.9 ± 610
313.15 K | 1057.2 ± 2.2 | 670.78 ± 68 | 32.96 ± 0.67 | 1436.8 ± 200
323.15 K | 1052.2 ± 2.2 | 682.99 ± 69 | 31.99 ± 0.66 | 659.1 ± 70
333.15 K | 1048.6 ± 2.2 | 694.16 ± 70 | 31.73 ± 0.66 | 333.3 ± 26
343.15 K | 1044.1 ± 2.2 | 705.81 ± 71 | 30.88 ± 0.66 | 182.6 ± 10
353.15 K | 1039 ± 2.2 | 717.01 ± 72 | 30.19 ± 0.65 | 107.1 ± 4
363.15 K | 1034.4 ± 2.2 | – | – | 66.6 ± 1.8
373.15 K | 1030.1 ± 2.2 | – | – | 43.5 ± 1.1

Details | Glass transition temperature [°C]
[2] | -44 ± 1

CCCCCCCC[n+]1ccn(C)c1.C[C@H](N)C(=O)[O-] [1-methyl-3-octylimidazolium L-alaninate]
Details | mass density, [2] [kg/m3] | molar heat capacity at constant pressure, [1] [J/K/mol] | surface tension liquid-gas, [2] [mN/m] | viscosity, [2] [mPa·s]
293.15 K | 985.3 ± 2.1 | 592.06 ± 60 | 28.24 ± 0.63 | 705.1 ± 76
303.15 K | 982.1 ± 2.1 | 600.95 ± 61 | 27.9 ± 0.63 | 347.3 ± 28
313.15 K | 978.6 ± 2.1 | 609.08 ± 62 | 27.23 ± 0.63 | 184.6 ± 10
323.15 K | 975.8 ± 2.1 | 620.49 ± 63 | 26.61 ± 0.62 | 106.9 ± 4
333.15 K | 972.9 ± 2.1 | 632.82 ± 64 | 26.11 ± 0.62 | 65.7 ± 1.7
343.15 K | 969.3 ± 2.1 | 645.14 ± 65 | 25.55 ± 0.62 | 42.9 ± 1.1
353.15 K | 966.3 ± 2.1 | 657.43 ± 66 | 24.99 ± 0.61 | 29.1 ± 0.7
363.15 K | 962.6 ± 2.1 | – | – | 20.7 ± 0.5
373.15 K | 959.7 ± 2.1 | – | – | 15.2 ± 0.4

Details | Glass transition temperature [°C]
[2] | -66 ± 1

CCCCCCCCn1cc[n+](C)c1.O=C([O-])[C@@H]1CCCN1 [1-methyl-3-octyl-1H-imidazol-3-ium L-prolinate]
Details | mass density, [2] [kg/m3] | molar heat capacity at constant pressure, [1] [J/K/mol] | surface tension liquid-gas, [2] [mN/m] | viscosity, [2] [mPa·s]
293.15 K | 1064.5 ± 2.2 | 561.68 ± 57 | 29.28 ± 0.64 | 1969.8 ± 290
303.15 K | 1058.2 ± 2.2 | 569.53 ± 58 | 28.88 ± 0.64 | 839.9 ± 97
313.15 K | 1051.8 ± 2.2 | 578.89 ± 58 | 28.46 ± 0.64 | 401.2 ± 35
323.15 K | 1045.5 ± 2.2 | 590.88 ± 60 | 28.17 ± 0.63 | 211 ± 13
333.15 K | 1039.1 ± 2.2 | 603.42 ± 61 | 27.76 ± 0.63 | 120.3 ± 5
343.15 K | 1032.8 ± 2.2 | 615.85 ± 62 | 27.62 ± 0.63 | 73.2 ± 2.1
353.15 K | 1026.4 ± 2.2 | 627.51 ± 63 | 27.14 ± 0.63 | 47.2 ± 1.2
363.15 K | 1020.1 ± 2.2 | – | – | 31.9 ± 0.8
373.15 K | 1013.9 ± 2.2 | – | – | 22.4 ± 0.6

Details | Glass transition temperature [°C]
[2] | -62 ± 1
